Here are results for 1 compound from patent US7179821B2, “Method of treating of demyelinating diseases or conditions” (Aventis Pharmaceuticals Inc., priority 2001, dated 2007).

Each structure is given as a SMILES string. Values joined by “and” are separate entries in the source; they are usually repeats but may differ in a detail not shown here. Equal entries are not always repeated.

The subject of one series is mouse pMCAO stroke model. As to the kind of experiment: Mouse pMCAO stroke model, infarct volume. It counts as in vivo. The note with it: −60 min (one hour prior to occlusion), infarct volume 24 hours later, vs vehicle treated mice. As for the experimental part: Methods: The experimental procedure was based on the method of Bachauβ et al (1992). Male CD-1 mice weighing 35–40 g were anaesthetized with chloral hydrate (400 mg/kg). Under an operating microscope, a 3 mm vertical skin incision was made 2 mm behind the right orbit. The temporal muscle was deflected and a small craniotomy carried out to expose the dura. The dura was incised and deflected and the distal part of the right […] exposed. The artery was occluded upstream to the main bifurcation by bipolar electroagulation with fine forceps. Infarct volume was measured 24 hours later using 2% triphenyltetrazolium chloride solution. In this experimental paradigm, HP 184 was orally administered to non-fasted mice (10 per group) one hour prior to occlusion. Infarct volume reduction was based on comparison to 1% acetic acid, vehicle, treated mice.

The test system of series [1] is voltage-dependent K+ channels. As to the kind of experiment: Potassium channel currents in PC12 cells, patch clamp. It counts as cell-based. The settings on record: 10 μM, 200 msec clamp pulses to +40 mV from −80 mV, n=4. The procedure:
PC12 cells (ATCC, Rockville, Md.) were grown in Dulbecco's modified Eagle's media supplemented with 10% fetal bovine serum (GIBCO BRL Grand Island, N.Y.). Potassium channel currents were measured using standard patch clamp electrophysiolgy protocols as detailed previously (Rampe et al., 1998).
Potassium channel currents were elicited by 200 msec clamp pulses to +40 mV from a holding potential of −80 mV. […] Application of HP184 (10 μM) reduced the amplitude of this current and enhanced the rate of current decay. When current was measured at the end of the pulse, HP184 reduced current amplitude by 75±4% (n=4). The results are consisent with the notion that HP184 acts as an antagonist of voltage-dependent K^+ channels by blocking an activated state.

Series [2] has as its system mechanical hyperalgesia after nerve ligation. As to the kind of experiment: Neuropathic pain model, spinal nerve constriction, von Frey paw withdrawal threshold. The note with it: 20 mg/kg po, tested 3 hours after dosing. It counts as in vivo, rat. As for the experimental part: Adult male Sprague-Dawley rats received unilateral constriction of the L6 nerve to produce chronic nerve injury. Following recovery from surgery (3–7 days post operative) animals were tested for paw withdrawal threshold to mechanical stimuli applied to the affected paw. This was determined by the application of calibrated von Frey monofilaments to the plantar surface of each hindpaw. Only animals with a 50% decrease in withdrawal threshold in the ligated paw were employed in the study, and were randomly assigned to one of 6 groups: three groups receiving one of three doses of HP 184 (0.3, 3 and 20 mg/kg, po), a fourth group receiving a single dose of another compound referred to MDL (10 mg/kg, ip), a fifth group receiving gabapentin (90 mg/kg, sc), and a sixth group receiving vehicle only. Behavioral testing occurred 45 minutes following the gabapentin (90 mg/kg, sc), and 3 hours following the HP 184, MDL, and vehicle. A difference score between the ligated and non-ligated paw withdrawal thresholds is calculated for each animal, and these differences were subjected to ANOVA with group as the main factor. […] Analysis was between/within repeated measures ANOVA. […]

For series [3], the system named is demyelinated area at the moderate compression injury site. As to the kind of experiment: Histological study of spinal cords, demyelinated area (luxol fast blue). It counts as in vivo, rat. As for the experimental part: A study to test whether the treatment with HP184 affected the amount of myelin in rats with moderate long term spinal cord crush injury when administered long after spinal cord injury.
The spinal cords from rats described above in the assessment were used for this study.
(50–60 mg/kg body weight, i.p.) and perfused transcardically—first with 100 mL 0.05M phosphate buffed saline (PBS) containing 0.1% heparin, followed by 300–500 mL of 4% paraformaldehyde (PFA). Segments T9 to L1 of the spinal cords were taken out, then cryo-protected in 30% sucrose solution and frozen at −70° C. in 10.24% polyvinyl alcohol and 4.26% polyethylene glycol.
A segment of each cord including the lesion site plus 10 mm rostral and caudal to the lesion site was embedded in Tissue Tek medium. Serial sections were cut longitudinally at 20 μm intervals on a cryostat. Every third section was stained with luxol fast blue for myelin. The evaluation was performed by observers blinded as to treatment, on coded slides. Sections were examined under a light microscope for the extent of demyelination (the area without luxol fast blue staining).
For determinations of the maximal demyelinated area of the cord, the whole section was digitized on photographs using a Zeiss microscope. The extent of demyelination was measured at the lesion center using a computerized Bioquant BQ-TCW98 image analysis progrem by an investigator who was blind to treatment group.
Statistical analysis was performed on a Macintosh computer using GB-Stat ppc 6.5.2. The histological results were analyzed by the Kruskal-Wallis nonparametric analysis of variance (ANOVA). Post hoc comparisons were made using Mann-Whitney U tests.

Series [4] relates to RuR-induced flaccid paralysis. As to the kind of experiment: Antagonism of ruthenium red (RuR)-induced flaccid paralysis, flagpole test. It counts as in vivo, mouse. As for the experimental part:
Method and Results: Groups of 4–5 mice (CD-1; Charles River; 25–35 grams) were separately but simultaneously injected ip with ruthenium red and vehicle (1% glacial acetic acid), ruthenium red and 4-AP, or ruthenium red and HP 184. The compound known as “8183” was also tested in this paradigm. Starting at 15 minutes after injections, mice were placed near a “flagpole” apparatus and their ability to support their own body weight (ie, to hold on to the flagpole and not fall) was recorded. Results were recorded as the number of mice that could support their own body weight versus the total number of mice tested. All experiments were performed between 2PM and 4:30PM.

Series [5] deals with moderate chronic (35 days post-injury) spinal cord crush. As to the kind of experiment: Long standing moderate spinal cord crush (35 days), OFT score. It counts as in vivo, rat. The note with it: 3 mg/kg po, thirty-five days after moderate injury, single dose then daily for 4 more days.
The test system of the next series is NO production. As to the kind of experiment: LPS-induced NO production in mice, plasma nitrate by Griess assay. It counts as in vivo, mouse. The note with it: 30 mg/kg ip 30 minutes prior to LPS 3 mg/kg ip, plasma 5 hours after LPS. The procedure: Mice were injected with 30 mg/kg HP 184 (ip) 30 minutes prior to LPS (3 mg/kg, ip). Mice were sacrificed 5 hours after LPS injection, and plasma collected. Nitrate levels were determined by the Griess assay. Groups were composed of 9–10 mice each.
Background: Griess reagent forms a coloured azo dye with nitrite.

For series [6] the following is noted: micromolar brain concentrations one hour after ip administration of 30 mg/kg in rats; cited from earlier work.
Where [7] appears, read: 10 mg/kg ip with RuR 30 mg/kg ip, 15 min.
Where [8] appears, read: 10 mg/kg ip with RuR 30 mg/kg ip, 30 min.
The mark [9] stands for this setting: 10 mg/kg ip with RuR 30 mg/kg ip, 45 min.
[10] abbreviates: 30 mg/kg ip with RuR 30 mg/kg ip, 15 min.
Setting [11] is: 30 mg/kg ip with RuR 30 mg/kg ip, 30 min.
Setting [12] is: 30 mg/kg ip with RuR 30 mg/kg ip, 45 min.

As to `CCCN(c1ccncc1F)n1cc(C)c2ccccc21` [HP184, N-(3-fluoro-4-pyridinyl)-N-propyl-3-methyl-1H-indole-1-amine], the “% infarct volume reduction mean sem” value in the series on mouse pMCAO stroke model (1 mg/kg po) was 21 ± 3%; with mouse pMCAO stroke model (10 mg/kg po), 40 ± 2.5 % and 32 ± 11 %. Moreover, the “reduction of current amplitude at the end of the pulse” value in series [1] was found to be 75±4%. Also, the “mechanical hyperalgesia, difference of ligated minus normal paw withdrawal threshold, FIG. 10” value in series [2] is “dose-response attentuation of L5 ligation mechanical hyperlagesia”. For the same compound, the “extent of demyelination, comparison of the groups” value in series [3] (3 mg/kg po) is “showed the least demyelination”. Besides, the “myelin at the site of injury” value in series [3] (3 mg/kg/day by oral gavage from 35 to 41 days after moderate crush injury) is reported as “more myelin at the site of injury”. In addition, the “myelinated / demyelinated area at the crush center, FIG. 7” value in series [3] (HP184 0.3, 1 or 3 mg/kg po or 4-AP 0.6 mg/kg ip, days 35–42 after moderate crush) is listed as “significantly greater myelinated area than that of saline controls”. In addition, the “% of mice that could support their own body weight” value in series [4] (setting [7]) is given as “(93.3%)”; in series [4] (setting [8]), “(80%)”; in series [4] (setting [9]), “(73.3%)”; in series [4] (setting [10]) it was “(100%)”; in series [4] (setting [11]) it was “(100%)”; in series [4] (setting [12]), “(100%)”. Also, the “number of mice that could support their own body weight versus total tested” value in series [4] (setting [7]) is recorded as 14 out of 15; in series [4] (setting [8]) it was 12 out of 15; in series [4] (setting [9]), 11 out of 15; in series [4] (setting [10]), 15 out of 15; in series [4] (setting [11]), 15 out of 15; in series [4] (setting [12]), 15 out of 15. In series [4] (ip, doses of Table 3), the “antagonism of the flaccid paralysis induced by ip RuR (conclusion)” value is given as “can antagonize the flaccid paralysis”. For the same compound, in series [5], the “motor recovery, Open Field Walking Test” value is given as “improves motor recovery after a single dose”. The “NO production (plasma nitrate), FIG. 9” value with NO production is “inhibits NO production”. The tolerability result in series [6] is “very well-tolerated”.
